Measurements taken from the supplement of paper PMC10307832.

Key:
Assay in all cases: relative viability (nuclei count vs DMSO), 5 days (fraction); higher = more cells survive
NCI-H2023 = test system: NCI-H2023
Method in brief: (§1)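 For relative viability, nuclei counts in treated wells were divided by those in vehicle wells. Lung cancer cell lines had been pin-tool dosed in 1536-well plates the day after seeding and cultured for 5 days, then fixed and stained in one step (final 0.05% Triton X-100, 1% formaldehyde, 1 ug/ml Hoechst) and imaged at 4×. Doses were one drug alone or a fixed anchor-drug dose plus five library-drug doses (not always all listed) in √10 steps, and values are duplicate-plate medians.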

COR-L23 = test system: COR-L23
Method in brief: as §1

HCC-366 = test system: HCC-366
Method in brief: as §1

SW 1573 = test system: SW 1573
Method in brief: as §1

NCI-H3122 = test system: NCI-H3122
Method in brief: as §1

NCI-H2009 = test system: NCI-H2009
Method in brief: as §1

ABC-1 = test system: ABC-1
Method in brief: as §1

EPLC-272H = test system: EPLC-272H
Method in brief: as §1

HCC-15 = test system: HCC-15
Method in brief: as §1

PC-14 = test system: PC-14
Method in brief: as §1

NCI-H1355 = test system: NCI-H1355
Method in brief: as §1

NCI-H2228 = test system: NCI-H2228
Method in brief: as §1

NCI-H2347 = test system: NCI-H2347
Method in brief: as §1

NCI-H1944 = test system: NCI-H1944
Method in brief: as §1

NCI-H1793 = test system: NCI-H1793
Method in brief: as §1

NCI-H2085 = test system: NCI-H2085
Method in brief: as §1

HCC-827 = test system: HCC-827
Method in brief: as §1

ChaGo-K-1 = test system: ChaGo-K-1
Method in brief: as §1

LCLC-103H = test system: LCLC-103H
Method in brief: as §1

NCI-H2405 = test system: NCI-H2405
Method in brief: as §1

NCI-H1734 = test system: NCI-H1734
Method in brief: as §1

With `Cc1csc(=NC2CCCCC2)n1/N=C/c1ccc(O)c(O)c1O` [MIM1] + Cc1nc(Nc2ncc(C(=O)Nc3c(C)cccc3Cl)s2)cc(N2CCN(CCO)CC2)n1 [Dasatinib] (partner 0.075 µM) the relative viability (NCI-H2023; first compound 0.2 µM) was 0.519, the relative viability (NCI-H2023; first compound 0.6325 µM) was 0.719 and the relative viability (NCI-H2023; first compound 2 µM) was 0.435. For the same compound, the relative viability (NCI-H2023; first compound 6.325 µM) was 0.249, the relative viability (NCI-H2023; first compound 20 µM) was 0.0702 and the relative viability (COR-L23; first compound 0.2 µM) was 0.449. The relative viability (COR-L23; first compound 0.6325 µM) was 0.552, the relative viability (COR-L23; first compound 2 µM) was 0.464 and the relative viability (COR-L23; first compound 6.325 µM) was 0.327. The relative viability (COR-L23; first compound 20 µM) was 0.335, the relative viability (HCC-366; first compound 0.2 µM) was 0.622 and the relative viability (HCC-366; first compound 2 µM) was 0.65. The relative viability (HCC-366; first compound 6.325 µM) was 0.388, the relative viability (HCC-366; first compound 20 µM) was 0.0615 and the relative viability (SW 1573; first compound 0.2 µM) was 0.557. It also gave a relative viability (SW 1573; first compound 0.6325 µM) of 0.558, a relative viability (SW 1573; first compound 2 µM) of 0.413 and a relative viability (SW 1573; first compound 6.325 µM) of 0.244. For the same compound, the relative viability (SW 1573; first compound 20 µM) was 0.0901, the relative viability (NCI-H3122; first compound 0.2 µM) was 0.779 and the relative viability (NCI-H3122; first compound 0.6325 µM) was 0.717. The relative viability (NCI-H3122; first compound 2 µM) was 0.882, the relative viability (NCI-H3122; first compound 6.325 µM) was 0.325 and the relative viability (NCI-H3122; first compound 20 µM) was 0.122. For the same compound, the relative viability (NCI-H2009; first compound 0.2 µM) was 0.303, the relative viability (NCI-H2009; first compound 0.6325 µM) was 0.327 and the relative viability (NCI-H2009; first compound 2 µM) was 0.293. It also gave a relative viability (NCI-H2009; first compound 6.325 µM) of 0.204, a relative viability (NCI-H2009; first compound 20 µM) of 0.123 and a relative viability (ABC-1; first compound 0.2 µM) of 0.598. It also gave a relative viability (ABC-1; first compound 0.6325 µM) of 0.555, a relative viability (ABC-1; first compound 2 µM) of 0.543 and a relative viability (ABC-1; first compound 6.325 µM) of 0.299. The relative viability (ABC-1; first compound 20 µM) was 0.248, the relative viability (EPLC-272H; first compound 0.2 µM) was 0.406 and the relative viability (EPLC-272H; first compound 0.6325 µM) was 0.305. For the same compound, the relative viability (EPLC-272H; first compound 2 µM) was 0.328, the relative viability (EPLC-272H; first compound 6.325 µM) was 0.312 and the relative viability (EPLC-272H; first compound 20 µM) was 0.0989. The relative viability (HCC-15; first compound 0.2 µM) was 0.635, the relative viability (HCC-15; first compound 2 µM) was 0.57 and the relative viability (HCC-15; first compound 6.325 µM) was 0.359. It also gave a relative viability (HCC-15; first compound 20 µM) of 0.101, a relative viability (PC-14; first compound 0.2 µM) of 0.301 and a relative viability (PC-14; first compound 0.6325 µM) of 0.27. The relative viability (PC-14; first compound 2 µM) was 0.171, the relative viability (PC-14; first compound 6.325 µM) was 0.233 and the relative viability (PC-14; first compound 20 µM) was 0.0786. For the same compound, the relative viability (NCI-H1355; first compound 0.2 µM) was 0.746, the relative viability (NCI-H1355; first compound 0.6325 µM) was 0.682 and the relative viability (NCI-H1355; first compound 2 µM) was 0.698. For the same compound, the relative viability (NCI-H1355; first compound 6.325 µM) was 0.655, the relative viability (NCI-H1355; first compound 20 µM) was 0.391 and the relative viability (NCI-H2228; first compound 0.2 µM) was 0.505. For the same compound, the relative viability (NCI-H2228; first compound 0.6325 µM) was 0.524, the relative viability (NCI-H2228; first compound 2 µM) was 0.66 and the relative viability (NCI-H2228; first compound 6.325 µM) was 0.205. It also gave a relative viability (NCI-H2228; first compound 20 µM) of 0.0988, a relative viability (NCI-H2347; first compound 0.2 µM) of 0.298 and a relative viability (NCI-H2347; first compound 0.6325 µM) of 0.284. For the same compound, the relative viability (NCI-H2347; first compound 2 µM) was 0.291, the relative viability (NCI-H2347; first compound 6.325 µM) was 0.339 and the relative viability (NCI-H2347; first compound 20 µM) was 0.26. The relative viability (NCI-H1944; first compound 0.2 µM) was 0.214, the relative viability (NCI-H1944; first compound 0.6325 µM) was 0.204 and the relative viability (NCI-H1944; first compound 2 µM) was 0.21. For the same compound, the relative viability (NCI-H1944; first compound 6.325 µM) was 0.191, the relative viability (NCI-H1944; first compound 20 µM) was 0.176 and the relative viability (NCI-H1793; first compound 0.2 µM) was 0.417. It also gave a relative viability (NCI-H1793; first compound 2 µM) of 0.372, a relative viability (NCI-H1793; first compound 6.325 µM) of 0.359 and a relative viability (NCI-H1793; first compound 20 µM) of 0.31. It also gave a relative viability (NCI-H2085; first compound 0.2 µM) of 0.323, a relative viability (NCI-H2085; first compound 0.6325 µM) of 0.251 and a relative viability (NCI-H2085; first compound 2 µM) of 0.261. It also gave a relative viability (NCI-H2085; first compound 6.325 µM) of 0.241, a relative viability (NCI-H2085; first compound 20 µM) of 0.253 and a relative viability (HCC-827; first compound 0.2 µM) of 0.376. The relative viability (HCC-827; first compound 0.6325 µM) was 0.308, the relative viability (HCC-827; first compound 2 µM) was 0.259 and the relative viability (HCC-827; first compound 6.325 µM) was 0.348. It also gave a relative viability (HCC-827; first compound 20 µM) of 0.488, a relative viability (ChaGo-K-1; first compound 0.2 µM) of 0.594 and a relative viability (ChaGo-K-1; first compound 0.6325 µM) of 0.552. It also gave a relative viability (ChaGo-K-1; first compound 2 µM) of 0.562, a relative viability (ChaGo-K-1; first compound 6.325 µM) of 0.466 and a relative viability (ChaGo-K-1; first compound 20 µM) of 0.173. It also gave a relative viability (LCLC-103H; first compound 0.2 µM) of 0.422, a relative viability (LCLC-103H; first compound 0.6325 µM) of 0.519 and a relative viability (LCLC-103H; first compound 2 µM) of 0.512. For the same compound, the relative viability (LCLC-103H; first compound 6.325 µM) was 0.401, the relative viability (LCLC-103H; first compound 20 µM) was 0.364 and the relative viability (NCI-H2405; first compound 0.2 µM) was 0.21. It also gave a relative viability (NCI-H2405; first compound 0.6325 µM) of 0.225, a relative viability (NCI-H2405; first compound 2 µM) of 0.209 and a relative viability (NCI-H2405; first compound 6.325 µM) of 0.205. For the same compound, the relative viability (NCI-H2405; first compound 20 µM) was 0.48, the relative viability (NCI-H1734; first compound 0.2 µM) was 0.453 and the relative viability (NCI-H1734; first compound 0.6325 µM) was 0.446. The relative viability (NCI-H1734; first compound 2 µM) was 0.487, the relative viability (NCI-H1734; first compound 6.325 µM) was 0.386 and the relative viability (NCI-H1734; first compound 20 µM) was 0.161.
